{"source": "PubChem BioAssay (NCI)", "note": "Several values for one entry are separate records, joined by “and”; a condition that tells them apart may be missing. Identical values can stand only once.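 Test compounds were applied to cells in 96-well plates for 48 hours at 5 doses. The concentration for 50% growth inhibition is given as GI50. TGI marks complete inhibition of growth.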"}
{"test_system": "OVCAR-5 ovarian", "assay": "NCI tumour cell line growth inhibition, 48 h", "units": {"GI50": "µM"}}
{"smiles": "Cc1cc(NN=C(c2ccc(O)cc2)c2ccc(O)cc2)c([N+](=O)[O-])cc1[N+](=O)[O-]", "GI50": 11.1, "TGI": "36.6 µM"}
{"smiles": "COc1ccc(-c2c(N)noc2-c2cc(OC)c3c(c2)OCCO3)cc1", "GI50": 0.0542, "TGI": "> 100 µM"}
{"smiles": "Cc1nc2ccccc2c(=O)n1/N=C(\\N=Nc1cc(Cl)ccc1Cl)c1ccccc1", "TGI": "> 100 µM"}
{"smiles": "Nc1ccccc1C#Cc1ccccc1C#Cc1cccs1", "GI50": 14.5, "TGI": "30 µM"}
{"smiles": "COc1ccc(-c2cc(/C=C/C(=O)c3ccc(N)cc3)[nH]n2)cc1", "GI50": 2.06, "TGI": "4.92 µM"}
{"smiles": "O=c1[nH]cnc2n[nH]nc12", "TGI": "> 100 µM"}
{"smiles": "CCOC(=O)c1c(NC(=O)c2ccc(Cl)cc2)sc2c(CN(C)C)c(O)ccc12", "GI50": 9.1, "TGI": "57.2 µM"}
{"smiles": "OCC(O)C(O)C(O)C(O)c1nnc2c(-c3ccccc3)nc3ccccc3n12", "note": "(stereo unspecified)", "GI50": "> 100", "TGI": "> 100 µM"}
{"smiles": "N#Cc1cc(S(=O)(=O)Nc2nc3cc(Cl)ccc3o2)c(SCc2ccccc2)cc1Cl", "GI50": 13, "TGI": "25.7 µM"}
{"smiles": "CC1(C)C2CCC13C(=O)C1OC3(C2)C2C(=O)c3c(ccc4c3ccc3ccccc34)C(=O)C12", "note": "(stereo unspecified)", "GI50": "> 100", "TGI": "> 100 µM"}
{"smiles": "C#C[C@]1(O)CC[C@H]2[C@@H]3CC=C4c5nc(N)sc5CC[C@]4(C)[C@H]3CC[C@@]21C", "GI50": 11.8, "TGI": "36.9 µM"}
{"smiles": "CCOC(=O)c1c(CN2CCN(C)CC2)nc2ccc(Cl)cc2c1-c1ccccc1", "GI50": 10.8, "TGI": "25 µM"}
{"smiles": "COc1ccccc1NC(=O)C1=C(C)NC(C)=C(C(=O)Nc2ccccc2OC)C1c1ccco1", "TGI": "> 100 µM"}
{"smiles": "Cc1ccc(OC(=O)N2C/C(=C\\c3ccccc3)C(=O)/C(=C/c3ccccc3)C2)cc1", "TGI": "> 100 µM"}
{"smiles": "CCOc1ccc2cc(-c3nn(CC4CCNCC4)c4ncnc(N)c34)ccc2c1", "GI50": 14.9, "TGI": "34.5 µM"}
{"smiles": "O=C(O)CCCCC1CCSS1", "note": "(stereo unspecified)", "TGI": "> 100 µM"}
{"smiles": "O=c1cccc(Cl)[nH]1", "TGI": "> 100 µM"}
{"smiles": "COc1ccccc1C(=O)N(Cc1ccccc1)c1ccc(Cl)c(C(=O)OC(C)C)c1", "TGI": "> 100 µM"}
{"smiles": "CN1CC[C@H](c2c(O)cc(O)c3c(=O)cc(-c4ccccc4Cl)oc23)[C@H](O)C1", "GI50": 0.0533, "TGI": "> 10 µM"}
{"smiles": "COc1ccc(C2=Nn3c(nnc3-n3nc(C)cc3C)SC2)cc1", "GI50": 0.34, "TGI": "> 100 µM"}
{"smiles": "COc1cc(-c2nn(-c3cccc(NC(=O)CCNc4ccc(N5CCOCC5)cc4)c3)cc2-c2ccncc2)ccc1Cl", "GI50": 3.43, "TGI": "> 100 µM"}
{"smiles": "COc1ccc(C)cc1NC(=S)C#N", "TGI": "> 100 µM"}
{"smiles": "COc1cccc(-c2nc3sccn3c2-c2ccnc(NCCCNS(=O)(=O)c3ccccc3)c2)c1", "GI50": 5.45, "TGI": "> 100 µM"}
{"smiles": "CCCCCC[C@H]1C(=O)O[C@H](C)[C@H](NC(=O)c2cccc(NC=O)c2OC)C(=O)O[C@@H](C)[C@@H]1OC(=O)CCC", "note": "(tested in a mixture with another compound)", "GI50": 20.9, "TGI": "47.6 µM"}
{"smiles": "CC1OC(OC2C(O)C(O)C(O)C(O)C2O)C(N)CC1N=C(N)C(=O)O", "note": "(stereo unspecified)", "TGI": "> 100 µM"}
{"smiles": "C=CC(=O)Nc1cc2c(Nc3ccc(F)c(Cl)c3)ncnc2cc1C#CC(C)(C)N1CCN(C)CC1", "GI50": 1.04, "TGI": "6.17 µM"}
{"smiles": "NCCCN=c1ccc2c3c1c(O)c1c(O)ccc(=O)c1c3[nH]n2CCNCCO", "TGI": "17.4 µM and 17.2 µM"}
{"test_system": "MDA-MB-231 breast", "assay": "NCI tumour cell line growth inhibition, 48 h", "units": {"GI50": "µM"}}
{"smiles": "CCOC1Oc2ccc(C)cc2C(=O)/C1=C\\Nc1ccc(S(N)(=O)=O)cc1", "note": "(stereo unspecified)", "GI50": 11.7, "TGI": "35.5 µM"}
{"smiles": "Cc1cc(NN=C(c2ccc(O)cc2)c2ccc(O)cc2)c([N+](=O)[O-])cc1[N+](=O)[O-]", "GI50": 4.7, "TGI": "20.7 µM"}
{"smiles": "COc1ccc(-c2c(N)noc2-c2cc(OC)c3c(c2)OCCO3)cc1", "GI50": 0.0851, "TGI": "> 43.3 µM"}
{"smiles": "Cc1nc2ccccc2c(=O)n1/N=C(\\N=Nc1cc(Cl)ccc1Cl)c1ccccc1", "TGI": "> 100 µM"}
{"smiles": "Nc1ccccc1C#Cc1ccccc1C#Cc1cccs1", "GI50": 11.8, "TGI": "28.2 µM"}
{"smiles": "COc1ccc(-c2cc(/C=C/C(=O)c3ccc(N)cc3)[nH]n2)cc1", "GI50": 2.14, "TGI": "8.29 µM"}
{"smiles": "O=c1[nH]cnc2n[nH]nc12", "GI50": 1.67, "TGI": "> 100 µM"}
{"smiles": "CCOC(=O)c1c(NC(=O)c2ccc(Cl)cc2)sc2c(CN(C)C)c(O)ccc12", "GI50": 6.53, "TGI": "34.5 µM"}
{"smiles": "OCC(O)C(O)C(O)C(O)c1nnc2c(-c3ccccc3)nc3ccccc3n12", "note": "(stereo unspecified)", "GI50": 32.8, "TGI": "> 100 µM"}
{"smiles": "N#Cc1cc(S(=O)(=O)Nc2nc3cc(Cl)ccc3o2)c(SCc2ccccc2)cc1Cl", "GI50": 10.7, "TGI": "22.5 µM"}
{"smiles": "CC1(C)C2CCC13C(=O)C1OC3(C2)C2C(=O)c3c(ccc4c3ccc3ccccc34)C(=O)C12", "note": "(stereo unspecified)", "GI50": "> 37.2", "TGI": "> 53.2 µM"}
{"smiles": "C#C[C@]1(O)CC[C@H]2[C@@H]3CC=C4c5nc(N)sc5CC[C@]4(C)[C@H]3CC[C@@]21C", "GI50": 3.07, "TGI": "9.67 µM"}
{"smiles": "CCOC(=O)c1c(CN2CCN(C)CC2)nc2ccc(Cl)cc2c1-c1ccccc1", "GI50": 7.16, "TGI": "21.2 µM"}
{"smiles": "COc1ccccc1NC(=O)C1=C(C)NC(C)=C(C(=O)Nc2ccccc2OC)C1c1ccco1", "TGI": "> 100 µM"}
{"smiles": "Cc1ccc(OC(=O)N2C/C(=C\\c3ccccc3)C(=O)/C(=C/c3ccccc3)C2)cc1", "TGI": "70.2 µM"}
{"smiles": "CCOc1ccc2cc(-c3nn(CC4CCNCC4)c4ncnc(N)c34)ccc2c1", "GI50": 11.1, "TGI": "25.5 µM"}
{"smiles": "O=C(O)CCCCC1CCSS1", "note": "(stereo unspecified)", "TGI": "> 100 µM"}
{"smiles": "O=c1cccc(Cl)[nH]1", "TGI": "> 100 µM"}
{"smiles": "COc1ccccc1C(=O)N(Cc1ccccc1)c1ccc(Cl)c(C(=O)OC(C)C)c1", "TGI": "> 100 µM"}
{"smiles": "CN1CC[C@H](c2c(O)cc(O)c3c(=O)cc(-c4ccccc4Cl)oc23)[C@H](O)C1", "GI50": 0.23, "TGI": "> 10 µM"}
{"smiles": "COc1ccc(C2=Nn3c(nnc3-n3nc(C)cc3C)SC2)cc1", "GI50": 0.177, "TGI": "> 100 µM"}
{"smiles": "COc1cc(-c2nn(-c3cccc(NC(=O)CCNc4ccc(N5CCOCC5)cc4)c3)cc2-c2ccncc2)ccc1Cl", "GI50": 2.05, "TGI": "7.18 µM"}
{"smiles": "COc1ccc(C)cc1NC(=S)C#N", "TGI": "> 100 µM"}
{"smiles": "COc1cccc(-c2nc3sccn3c2-c2ccnc(NCCCNS(=O)(=O)c3ccccc3)c2)c1", "GI50": 3.48, "TGI": "> 100 µM"}
{"smiles": "CCCCCC[C@H]1C(=O)O[C@H](C)[C@H](NC(=O)c2cccc(NC=O)c2OC)C(=O)O[C@@H](C)[C@@H]1OC(=O)CCC", "note": "(tested in a mixture with another compound)", "GI50": 13.5, "TGI": "34.2 µM"}
{"smiles": "CC1OC(OC2C(O)C(O)C(O)C(O)C2O)C(N)CC1N=C(N)C(=O)O", "note": "(stereo unspecified)", "TGI": "> 100 µM"}
{"smiles": "C=CC(=O)Nc1cc2c(Nc3ccc(F)c(Cl)c3)ncnc2cc1C#CC(C)(C)N1CCN(C)CC1", "GI50": 1.27, "TGI": "2.73 µM"}
{"smiles": "NCCCN=c1ccc2c3c1c(O)c1c(O)ccc(=O)c1c3[nH]n2CCNCCO", "GI50": 2.43, "TGI": "12.3 µM and 25 µM"}
{"test_system": "HCT-15 colon", "assay": "NCI tumour cell line growth inhibition, 48 h", "units": {"GI50": "µM", "TGI": "µM"}}
{"smiles": "CCOC1Oc2ccc(C)cc2C(=O)/C1=C\\Nc1ccc(S(N)(=O)=O)cc1", "note": "(stereo unspecified)", "GI50": 12.5, "TGI": "> 50"}
{"smiles": "Cc1cc(NN=C(c2ccc(O)cc2)c2ccc(O)cc2)c([N+](=O)[O-])cc1[N+](=O)[O-]", "GI50": 4.19, "TGI": 53.6}
{"smiles": "COc1ccc(-c2c(N)noc2-c2cc(OC)c3c(c2)OCCO3)cc1", "GI50": "< 0.01", "TGI": "> 100"}
{"smiles": "Cc1nc2ccccc2c(=O)n1/N=C(\\N=Nc1cc(Cl)ccc1Cl)c1ccccc1", "TGI": "> 100"}
{"smiles": "Nc1ccccc1C#Cc1ccccc1C#Cc1cccs1", "GI50": 13.1, "TGI": 33.5}
{"smiles": "COc1ccc(-c2cc(/C=C/C(=O)c3ccc(N)cc3)[nH]n2)cc1", "GI50": 1, "TGI": 3.62}
{"smiles": "O=c1[nH]cnc2n[nH]nc12", "TGI": "> 100"}
{"smiles": "CCOC(=O)c1c(NC(=O)c2ccc(Cl)cc2)sc2c(CN(C)C)c(O)ccc12", "GI50": 2.16, "TGI": 5.76}
{"smiles": "OCC(O)C(O)C(O)C(O)c1nnc2c(-c3ccccc3)nc3ccccc3n12", "note": "(stereo unspecified)", "GI50": 53.1, "TGI": "> 100"}
{"smiles": "N#Cc1cc(S(=O)(=O)Nc2nc3cc(Cl)ccc3o2)c(SCc2ccccc2)cc1Cl", "GI50": 16.2, "TGI": 29.7}
{"smiles": "CC1(C)C2CCC13C(=O)C1OC3(C2)C2C(=O)c3c(ccc4c3ccc3ccccc34)C(=O)C12", "note": "(stereo unspecified)", "GI50": "> 53.5", "TGI": "> 100"}
{"smiles": "C#C[C@]1(O)CC[C@H]2[C@@H]3CC=C4c5nc(N)sc5CC[C@]4(C)[C@H]3CC[C@@]21C", "GI50": 3.2, "TGI": 17.3}
{"smiles": "CCOC(=O)c1c(CN2CCN(C)CC2)nc2ccc(Cl)cc2c1-c1ccccc1", "GI50": 5.42, "TGI": 20.9}
